The test concerns Collagen Induced Arthritis (CIA) in female Lewis rats. In words: In vivo chronic study: Collagen Induced Arthritis (CIA). The conditions noted are these: 2 × 30 mg/Kg. Further details: species or system rat. The source says:
Collagen Induced Arthritis (CIA) is a well characterized model of human rheumatoid arthritis (RA) that can be induced in susceptible animals following immunization with type II collagen (cII) in Freund's adjuvant. […] Pathophysiology of CIA consists of T cell component, as evidenced by increased infiltration of T-cells in joint synovium and also, by attenuation of CIA in T-cell deficient mice. CIA development involves B cell component too, as is evidenced by circulating cII antibody in disease animals and also, failure to develop the disease in xid mice/B cell deficient mice/CXCR5 null mice. […] See, Pine, “Inflammation and bone erosion are suppressed in models of rheumatoid arthritis following treatment with a novel Syk inhibitor”, Clin. Immunol., 2007, 124(3):244-57; Xiong cha, “Suppression of the onset and progression of collagen-induced arthritis in rats by QFGJS, a preparation from an anti-arthritic Chinese herbal formula”, J. Ethnopharmacology (2007) 110:39-48; and Stolina, “The evolving systemic and local biomarker milieu at different stages of disease progression in rat collagen induced arthritis”, Biomarkers (2008) 13(7-8):692-712, which are herein incorporated by reference.
Female Lewis rats (8 per group, 6-8 weeks old) were immunized on day 1 with type II collagen (Immunization grade Bovine type II; Chondrex; Cat #20021) emulsified with Complete Freund's Adjuvant (Sigma; Cat# F5881) at a final concentration of 1.2 mg/mL). For the initial immunization, the animals were injected at the base of the tail with 300 μg of the cII (0.25 mL/rat). A booster injection of the same type II collagen emulsified with Incomplete Freund's Adjuvant (Sigma, Cat #F5506) (0.25 mL/rat) was given to the animals on day 8 at the base of the tail (100 μg). The final cII concentration in the booster was […].
Animals with an arthritic score of ≥1 were grouped and dosing with test compound (30 mg/kg bid) or methotrexate (0.5 mg/kg) started between about day 12 to day 14, with daily dosing of their respective compounds continuing for 10 days.
Edema: Paw volumes are measured by Plethysmometry for the animals before induction of CIA (Basal readings) and on Day 1, 3, 6 and 9 of dosing period. Both hind paw volumes were measured and edema was calculated by subtracting from the basal mean.
Arthritic score: Animals were scored for the symptoms of arthritis every day starting from Day of onset of disease till the end of the study. Both the hind paws were scored and the total scores were averaged and compared with control. The scoring pattern was as follows:
The percent inhibition of Edema was calculated with respect to control by the formula: […]
The percent inhibition of Arthritic score was calculated with respect to control by the formula: […]
Means of different groups were compared with control using one way ANOVA followed by Dunnett's test. Significance is represented as follows.

SMILES strings stand for the structures. Marks after values point to notes of the source that are not given here.

Consider `O=C(O)C1CC12CCN(c1ccc(Nc3nc(-c4ccccc4)nc4cn[nH]c(=O)c34)cc1)CC2` (stereo not shown) [Example 19, 6-(4-(5-oxo-2-phenyl-5,6-dihydropyrimido[4,5-d]pyridazin-4-ylamino)phenyl)-6-azaspiro[2.5]octane-1-carboxylic acid], for which the “Percent inhibition of Edema (Day 9 of dosing)” value is reported as 5** and the “Percent inhibition of Arthritic score (Day 10 of dosing)” value is reported as 20*.
Taken in the same sequence, the figures for `O=C(O)C1CC12CCN(c1ccc(Nc3nc(N4CCCCCC4)nc4cn[nH]c(=O)c34)cc1)CC2` (stereo not shown) [Example 62, 6-(4-((2-(azepan-1-yl)-5-oxo-5,6-dihydropyrimido[4,5-d]pyridazin-4-yl)amino)phenyl)-6-azaspiro[2.5]octane-1-carboxylic acid] were 69*** and 81***.
Taken in the same sequence, the figures for `O=C(O)CC1CCN(c2ccc(Nc3nc(N4CCCCCC4)nc4cn[nH]c(=O)c34)cn2)CC1` [Example 108, 2-(1-(5-((2-(azepan-1-yl)-5-oxo-5,6-dihydropyrimido[4,5-d]pyridazin-4-yl)amino)pyridin-2-yl)piperidin-4-yl) acetic acid] were 42*** and 53***.
Taken in the same sequence, the figures for `N#CCC1CCN(c2nc(Nc3ccc(N4CCC(O)CC4)cc3)c3c(=O)[nH]ncc3n2)CC1` [Example 189, 2-(1-(4-((4-(4-hydroxypiperidin-1-yl)phenyl)amino)-5-oxo-5,6-dihydropyrimido[4,5-d]pyridazin-2-yl)piperidin-4-yl)acetonitrile] were 90*** and 94***.
As for `N#CCC1CCN(c2nc(Nc3ccc(N4CCN(CCO)CC4)cc3)c3c(=O)[nH]ncc3n2)CC1` [Example 191, 2-(1-(4-((4-(4-(2-hydroxyethyl)piperazin-1-yl)phenyl)amino)-5-oxo-5,6-dihydropyrimido[4,5-d]pyridazin-2-yl)piperidin-4-yl)acetonitrile], the “Percent inhibition of Edema (Day 9 of dosing)” value is 90*** and the “Percent inhibition of Arthritic score (Day 10 of dosing)” value is recorded as 100***.

These data come from US10183944B2 (Asana Biosciences, LLC, priority 2011, dated 2019).
